The term IC50 denotes the concentration at which inhibition is half-maximal.

Each structure is given as a SMILES string. A value given as a limit tells only on which side of the number the result lay.

Consider 57 molecules from patent US20250092016A1, “COMPOUNDS AND COMPOSITIONS FOR THE TREATMENT OF CORONAVIRAL RELATED DISEASES” (priority 2021, published 2025).

The target of one test is SARS-CoV-2 main protease (M^pro) (Severe acute respiratory syndrome coronavirus 2, UniProt P0DTD1). The test can be described thus: Rapid-Fire MS Biochemical Assay measuring Mpro activity (5 nM Mpro). As to conditions: Rapid-Fire Assay IC50, Table 1B, Mpro inhibition, 5 μM substrate peptide, 120 min.
As for `N#Cc1ccc(N2C[C@H](C#N)N(c3cncc4ccccc34)C2=O)cc1F` (single isomer, unassigned) [Compound 73a], the IC50 was less than 0.02 µM. On to `N#Cc1ccc(N2C[C@@H](C#N)N(c3cncc4ccccc34)C2=O)cc1F` (single isomer, unassigned) [Compound 73b], for which the IC50 fell in the range of 0.2 to 1 µM.

The same test, now with this note: Table 1B, Mpro inhibition, 5 μM substrate peptide, 120 min, read-out: Rapid-Fire Assay IC50.
In the case of `N#Cc1cccc(N2C[C@H](C#N)N(c3cncc4ccccc34)C2=O)c1` (single isomer, unassigned) [Compound 52a], the IC50 is less than 0.02 µM. Regarding `N#Cc1cccc(N2C[C@@H](C#N)N(c3cncc4ccccc34)C2=O)c1` (single isomer, unassigned) [Compound 52b], the IC50 fell in the range of 0.2 to 1 µM. On to `Cc1ccnc(N2C[C@H](C#N)N(c3cncc4ccccc34)C2=O)n1` (single isomer, unassigned) [Compound 53a], for which the IC50 fell in the range of 0.2 to 1 µM. With `Cc1ccnc(N2C[C@@H](C#N)N(c3cncc4ccccc34)C2=O)n1` (single isomer, unassigned) [Compound 53b], the IC50 is greater than 1 µM. With `N#C[C@H]1CN(c2cc(Cl)cnn2)C(=O)N1c1cncc2ccccc12` (single isomer, unassigned) [Compound 54a], the IC50 fell in the range of 0.02 to 0.2 µM.

Consider `N#C[C@@H]1CN(c2cc(Cl)cnn2)C(=O)N1c1cncc2ccccc12` (single isomer, unassigned) [Compound 54b], for which the IC50 fell in the range of 0.2 to 1 µM.

Consider `N#C[C@H]1CN(c2ccc(F)nc2)C(=O)N1c1cncc2ccccc12` (single isomer, unassigned) [Compound 55a], for which the IC50 was in the range of 0.02 to 0.2 µM.

Consider `N#C[C@@H]1CN(c2ccc(F)nc2)C(=O)N1c1cncc2ccccc12` (single isomer, unassigned) [Compound 55b], for which the 50% inhibitory concentration (IC50) is greater than 1 µM. Still for that read-out and setting: then `N#C[C@H]1CN(c2ccccc2F)C(=O)N1c1cncc2ccccc12` (single isomer, unassigned) [Compound 56a], with 0.02 to 0.2 µM. `N#C[C@@H]1CN(c2ccccc2F)C(=O)N1c1cncc2ccccc12` (single isomer, unassigned) [Compound 56b]: the IC50 was greater than 1 µM. Same read-out and setting: the figure for `N#C[C@H]1CN(c2ccnc(C(F)(F)F)c2)C(=O)N1c1cncc2ccccc12` (single isomer, unassigned) [Compound 57a] is less than 0.02 µM; for `N#C[C@@H]1CN(c2ccnc(C(F)(F)F)c2)C(=O)N1c1cncc2ccccc12` (single isomer, unassigned) [Compound 57b] it is greater than 1 µM; for `COc1cc(Cl)cnc1N1C[C@H](C#N)N(c2cncc3ccccc23)C1=O` (single isomer, unassigned) [Compound 58a] it is 0.02 to 0.2 µM. As to `COc1cc(Cl)cnc1N1C[C@@H](C#N)N(c2cncc3ccccc23)C1=O` (single isomer, unassigned) [Compound 58b], the IC50 is greater than 1 µM. Take `N#C[C@H]1CN(c2cc(OC(F)F)ccc2F)C(=O)N1c1cncc2ccccc12` (single isomer, unassigned) [Compound 59a]: the IC50 lay in the range of 0.02 to 0.2 µM. The same measure, in the same setting: the figure for `N#C[C@@H]1CN(c2cc(OC(F)F)ccc2F)C(=O)N1c1cncc2ccccc12` (single isomer, unassigned) [Compound 59b] is greater than 1 µM; for `N#Cc1cc(Cl)ccc1N1C[C@H](C#N)N(c2cncc3ccccc23)C1=O` (single isomer, unassigned) [Compound 60a] it is less than 0.02 µM. On the same count and under the same terms, then `N#Cc1cc(Cl)ccc1N1C[C@@H](C#N)N(c2cncc3ccccc23)C1=O` (single isomer, unassigned) [Compound 60b], with 0.2 to 1 µM. On to `N#C[C@H]1CN(c2cccc(F)n2)C(=O)N1c1cncc2ccccc12` (single isomer, unassigned) [Compound 61a], for which the IC50 was in the range of 0.02 to 0.2 µM. The same measure, in the same setting: then `N#C[C@@H]1CN(c2cccc(F)n2)C(=O)N1c1cncc2ccccc12` (single isomer, unassigned) [Compound 61b], with greater than 1 µM; and `Cc1cnc(C(F)(F)F)nc1N1C[C@H](C#N)N(c2cncc3ccccc23)C1=O` (single isomer, unassigned) [Compound 62a], with 0.2 to 1 µM. For `Cc1cnc(C(F)(F)F)nc1N1C[C@@H](C#N)N(c2cncc3ccccc23)C1=O` (single isomer, unassigned) [Compound 62b], the IC50 is greater than 1 µM. In the case of `N#C[C@H]1CN(c2cccc3cn[nH]c23)C(=O)N1c1cncc2ccccc12` (single isomer, unassigned) [Compound 63a], the IC50 is less than 0.02 µM.

Regarding `N#C[C@@H]1CN(c2cccc3cn[nH]c23)C(=O)N1c1cncc2ccccc12` (single isomer, unassigned) [Compound 63b], the IC50 was greater than 1 µM.

On to `CC(C)n1cc(N2C[C@H](C#N)N(c3cncc4ccccc34)C2=O)cn1` (single isomer, unassigned) [Compound 64a], for which the IC50 was less than 0.02 µM.

As to `CC(C)n1cc(N2C[C@@H](C#N)N(c3cncc4ccccc34)C2=O)cn1` (single isomer, unassigned) [Compound 64b], the IC50 was greater than 1 µM. On to `Cn1cc(N2C[C@H](C#N)N(c3cncc4ccccc34)C2=O)cn1` (single isomer, unassigned) [Compound 65a], for which the half-maximal inhibitory concentration (IC50) was in the range of 0.02 to 0.2 µM. In the case of `Cn1cc(N2C[C@@H](C#N)N(c3cncc4ccccc34)C2=O)cn1` (single isomer, unassigned) [Compound 65b], the IC50 was greater than 1 µM. Still for that read-out and setting: then `N#C[C@H]1CN(c2ccc(F)cc2F)C(=O)N1c1cncc2ccccc12` (single isomer, unassigned) [Compound 66a], with less than 0.02 µM.

Consider `N#C[C@@H]1CN(c2ccc(F)cc2F)C(=O)N1c1cncc2ccccc12` (single isomer, unassigned) [Compound 66b], for which the IC50 was greater than 1 µM. On the same count and under the same terms, then `Cn1ccc(N2C[C@H](C#N)N(c3cncc4ccccc34)C2=O)cc1=O` (single isomer, unassigned) [Compound 67a], with 0.02 to 0.2 µM; and `Cn1ccc(N2C[C@@H](C#N)N(c3cncc4ccccc34)C2=O)cc1=O` (single isomer, unassigned) [Compound 67b], with greater than 1 µM; and `N#C[C@H]1CN(c2ncc(C(F)(F)F)[nH]2)C(=O)N1c1cncc2ccccc12` (single isomer, unassigned) [Compound 68a], with 0.02 to 0.2 µM. On to `N#C[C@@H]1CN(c2ncc(C(F)(F)F)[nH]2)C(=O)N1c1cncc2ccccc12` (single isomer, unassigned) [Compound 68b], for which the IC50 was greater than 1 µM. As for `CC(C)(O)c1cccc(N2C[C@H](C#N)N(c3cncc4ccccc34)C2=O)c1` (single isomer, unassigned) [Compound 69a], the IC50 is 0.02 to 0.2 µM. Still for that read-out and setting: then `CC(C)(O)c1cccc(N2C[C@@H](C#N)N(c3cncc4ccccc34)C2=O)c1` (single isomer, unassigned) [Compound 69b], with greater than 1 µM; and `Cc1cnc(C(F)(F)F)cc1N1C[C@H](C#N)N(c2cncc3ccccc23)C1=O` (single isomer, unassigned) [Compound 70a], with less than 0.02 µM. For `Cc1cnc(C(F)(F)F)cc1N1C[C@@H](C#N)N(c2cncc3ccccc23)C1=O` (single isomer, unassigned) [Compound 70b], the IC50 is greater than 1 µM.

Consider `N#C[C@H]1CN(c2ccc(OC(F)F)cc2)C(=O)N1c1cncc2ccccc12` (single isomer, unassigned) [Compound 71a], for which the IC50 was less than 0.02 µM. On to `N#C[C@@H]1CN(c2ccc(OC(F)F)cc2)C(=O)N1c1cncc2ccccc12` (single isomer, unassigned) [Compound 71b], for which the concentration for half-maximal inhibition (IC50) was greater than 1 µM.

Take `N#C[C@H]1CN(c2ccc(F)c(F)c2)C(=O)N1c1cncc2ccccc12` (single isomer, unassigned) [Compound 72a]: the IC50 was less than 0.02 µM.

On to `N#C[C@@H]1CN(c2ccc(F)c(F)c2)C(=O)N1c1cncc2ccccc12` (single isomer, unassigned) [Compound 72b], for which the IC50 lay in the range of 0.2 to 1 µM.

As to `Cc1ncccc1N1C[C@H](C#N)N(c2cncc3ccccc23)C1=O` (single isomer, unassigned) [Compound 74a], the IC50 is 0.2 to 1 µM. As to `Cc1ncccc1N1C[C@@H](C#N)N(c2cncc3ccccc23)C1=O` (single isomer, unassigned) [Compound 74b], the IC50 is greater than 1 µM. Still for that read-out and setting: the figure for `N#C[C@H]1CN(c2ccc(C(F)F)nc2)C(=O)N1c1cncc2ccccc12` (single isomer, unassigned) [Compound 75a] is less than 0.02 µM. On the same count and under the same terms, the figure for `N#C[C@@H]1CN(c2ccc(C(F)F)nc2)C(=O)N1c1cncc2ccccc12` (single isomer, unassigned) [Compound 75b] is greater than 1 µM.

On to `N#C[C@H]1CN(c2cccc(F)c2)C(=O)N1c1cncc2ccccc12` (single isomer, unassigned) [Compound 76a], for which the IC50 is less than 0.02 µM.

Turning to `N#C[C@@H]1CN(c2cccc(F)c2)C(=O)N1c1cncc2ccccc12` (single isomer, unassigned) [Compound 76b], the IC50 is greater than 1 µM. Still for that read-out and setting: then `N#C[C@H]1CN(c2cnc(C(F)(F)F)c(F)c2)C(=O)N1c1cncc2ccccc12` (single isomer, unassigned) [Compound 77a], with less than 0.02 µM; and `N#C[C@@H]1CN(c2cnc(C(F)(F)F)c(F)c2)C(=O)N1c1cncc2ccccc12` (single isomer, unassigned) [Compound 77b], with 0.02 to 0.2 µM; and `N#C[C@H]1CN(c2ccc(C(F)F)cn2)C(=O)N1c1cncc2ccccc12` (single isomer, unassigned) [Compound 78a], with less than 0.02 µM. Still for that read-out and setting: the figure for `N#C[C@@H]1CN(c2ccc(C(F)F)cn2)C(=O)N1c1cncc2ccccc12` (single isomer, unassigned) [Compound 78b] is greater than 1 µM.

Turning to `Cc1ncc(N2C[C@H](C#N)N(c3cncc4ccccc34)C2=O)cn1` (single isomer, unassigned) [Compound 79a], the IC50 lay in the range of 0.02 to 0.2 µM. Still for that read-out and setting: the figure for `Cc1ncc(N2C[C@@H](C#N)N(c3cncc4ccccc34)C2=O)cn1` (single isomer, unassigned) [Compound 79b] is greater than 1 µM; for `Cc1cc(Cl)cnc1N1C[C@H](C#N)N(c2cncc3ccccc23)C1=O` (single isomer, unassigned) [Compound 80a] it is 0.02 to 0.2 µM.
